Test results taken from publication PMC8175350, “Drug repurposing screens identify chemical entities for the development of COVID-19 interventions” (Nature Communications, 2021).
“And” between values parts separate entries of the source, which are not always exact repeats. Identical values can stand only once. Like-named read-outs stand apart in the source and are kept apart here.

Assays:
SARS-CoV-2 [1] = assay: microbe, parasite or virus in culture; assay type: cell-based; conditions: for TOA: HeLa-ACE2, replicate wells n=1-3
SARS-CoV-2 [2] = assay type: cell-based
SARS-CoV-2 [3] = assay: microbe, parasite or virus in culture; assay type: cell-based; conditions: for %infected: replicate wells n=1-3
Calu-3 cells = conditions: read-out: Calu-3 cell count EC50 GeoMean
HeLa-ACE2 cells = assay: cells; conditions: Homo sapiens

Cc1cccc(/C=N/Nc2cc(N3CCOCC3)nc(OCCc3ccccn3)n2)c1 [Apilimod]
SARS-CoV-2 % infected cells (SARS-CoV-2 [1]; 10 µM after 1 h infection, 24:00:00): 17.8372% and 19.3932% and 18.4264%
activity when treatment was initiated at 1 hpi (SARS-CoV-2 [1]; HeLa-ACE2, 10 µM): Loss of activity
TOA (SARS-CoV-2 [1]; concentration log[M] -5.61909): -9.8778 and -6.262 and 0.3048 and -11.9309 and -26.5472 and -5.999 and -10.1028 and 0.08491 and -22.8314
TOA (SARS-CoV-2 [1]; concentration log[M] -6.09621): 1.8452 and 11.477 and 4.5258 and -10.0091 and -14.0586 and -2.797 and -23.1834 and -27.6557 and -36.518
TOA (SARS-CoV-2 [1]; concentration log[M] -6.57334): -3.994 and -3.466 and -5.79 and -4.984 and -4.372 and -2.992 and -21.4509 and 1.122 and -26.1046
TOA (SARS-CoV-2 [1]; concentration log[M] -7.05046): -6.181 and -4.5978 and -2.954 and -15.6715 and -7.849 and -0.2917 and -3.649 and -3.511 and -18.2837
TOA (SARS-CoV-2 [1]; concentration log[M] -7.52758): 6.077 and -0.625 and 10.6098 and -1.822 and 4.214 and -1.579 and 5.171 and 1.731 and -77.382
TOA (SARS-CoV-2 [1]; concentration log[M] -8.0047): 2.779 and 3.019 and 8.825 and -4.236 and -3.9816 and -0.9799 and 1.304 and -2.325 and -36.3674
TOA (SARS-CoV-2 [1]; concentration log[M] -8.48182): 7.953 and 7.587 and 8.026 and -5.856 and -0.7172 and 2.883 and 9.017 and -1.346 and -21.1061
TOA (SARS-CoV-2 [1]; concentration log[M] -8.95894): 0.4128 and 0.7327 and 13.745 and -6.2 and 7.839 and 1.622 and 7.708 and 2.325 and 1.297
EC50 (SARS-CoV-2 [1]; Severe acute respiratory syndrome coronavirus 2, HeLa-ACE2, HeLa-ACE2, fixed 10 hpi, geomean, read-out: CoV-2 TOA EC50): > 2400 nM
EC50 (SARS-CoV-2 [1]; read-out: HeLa-ACE2 TOA CoV-2 EC50 GeoMean): > 9610 nM
effect on viral replication in ALI-HBECs (SARS-CoV-2 [2]): did not
increase in EC50 from MOI = 0.09 to MOI = 2.2 (SARS-CoV-2 [3]; HeLa-ACE2): 3.7 fold
EC50 (SARS-CoV-2 [3]; HeLa-ACE2, geomean, read-out: SARS-CoV-2 EC50): 11.3 nM
EC50 (SARS-CoV-2 [3]; HeLa-ACE2, individual values of 9 independent experiments, read-out: EC50 (µM), Fig 1c): 32 nM and 10 nM (2×) and 9 nM (3×) and 6 nM (2×) and 35 nM
%infected (SARS-CoV-2 [3]; HeLa-ACE2, concentration log[M] -5.61909): -89.9366% and -97.9564% and -96.6883% and -98.5854% and -99.176% and -97.4315% and -98.076% and -88.0351% and -79.0377%
%infected (SARS-CoV-2 [3]; HeLa-ACE2, concentration log[M] -6.09621): -87.038% and -98.4457% and -97.9148% and -98.877% and -98.5692% and -99.1064% and -97.5527% and -92.9215% and -87.0799%
%infected (SARS-CoV-2 [3]; HeLa-ACE2, concentration log[M] -6.57334): -75.6225% and -96.1764% and -98.2769% and -98.0074% and -97.3703% and -99.7483% and -98.3422% and -89.6186% and -88.4431%
%infected (SARS-CoV-2 [3]; HeLa-ACE2, concentration log[M] -7.05046): -82.6962% and -96.6541% and -97.5624% and -97.8117% and -96.6757% and -95.0973% and -96.8567% and -85.1569% and -75.3432%
%infected (SARS-CoV-2 [3]; HeLa-ACE2, concentration log[M] -7.52758): -73.6156% and -84.2045% and -91.7586% and -85.2086% and -88.488% and -83.6715% and -88.6894% and -80.6843% and -66.0801%
%infected (SARS-CoV-2 [3]; HeLa-ACE2, concentration log[M] -8.0047): -72.126% and -55.1215% and -37.7284% and -49.8809% and -50.2572% and -55.8328% and -53.8485%
Emax (SARS-CoV-2 [3]; Severe acute respiratory syndrome coronavirus 2, HeLa-ACE2, 24 h, read-out: HeLa-ACE2 CoV-2 Sinf Average): 93%
EC50 (SARS-CoV-2 [3]; Severe acute respiratory syndrome coronavirus 2, HeLa-ACE2, HeLa-ACE2, MOI 0.09, read-out: EC50): 7.3 nM
EC50 (SARS-CoV-2 [3]; Severe acute respiratory syndrome coronavirus 2, HeLa-ACE2, HeLa-ACE2, MOI 0.26, read-out: EC50): 13.6 nM
EC50 (SARS-CoV-2 [3]; Severe acute respiratory syndrome coronavirus 2, HeLa-ACE2, HeLa-ACE2, MOI 0.51, read-out: EC50): 18.5 nM
EC50 (SARS-CoV-2 [3]; Severe acute respiratory syndrome coronavirus 2, HeLa-ACE2, HeLa-ACE2, MOI 1.1, read-out: EC50): 19.6 nM
EC50 (SARS-CoV-2 [3]; Severe acute respiratory syndrome coronavirus 2, HeLa-ACE2, HeLa-ACE2, MOI 2.2, read-out: EC50): 27 nM
EC50 (SARS-CoV-2 [3]; Severe acute respiratory syndrome coronavirus 2, HeLa-ACE2, HeLa-ACE2, geomean, read-out: SARS-CoV-2 EC50): 11 nM
EC50 (SARS-CoV-2 [3]; Severe acute respiratory syndrome coronavirus 2, HeLa-ACE2, detail column, read-out: HeLa-ACE2 CoV-2 EC50 GeoMean): < 6.39 nM
Emax (SARS-CoV-2 [3]; Severe acute respiratory syndrome coronavirus 2, HeLa-ACE2, of uninfected cells at the highest effective concentrations, read-out: maximal efficacy): 85 to 90%
HeLa-ACE2 SI (SARS-CoV-2 [3]; selectivity index, uninfected HeLa-ACE2 CC50 / SARS-CoV-2 EC50): > 4353.33
EC50 (Calu-3 cells): > 9980 nM
Emax (HeLa-ACE2 cells; HeLa-ACE2, 24 h, read-out: HeLa-ACE2 cell count Sinf Average): 100%
EC50 (HeLa-ACE2 cells; HeLa-ACE2, read-out: cell count in infection assay EC50, HeLa-ACE2, geomean, ^↑ = increasing dose-response curve): > 2400 nM
